# Results: patent US4430427A, “Red absorbing combination of alcohol oxidase and an azide compound” (Phillips Petroleum Company, priority 1980, dated 1984)
# Read-outs that look alike come from different tables or passages of the source.
# Legend:
# Pichia alcohol oxidase [1] = biological target: T1, Pichia alcohol oxidase (Komagataella phaffii, UniProt F2QY27); conditions: crude enzyme saturated with salt crystals; assayed 1-2 minutes later
# T1 sequence (F2QY27 2-663 limits assumed): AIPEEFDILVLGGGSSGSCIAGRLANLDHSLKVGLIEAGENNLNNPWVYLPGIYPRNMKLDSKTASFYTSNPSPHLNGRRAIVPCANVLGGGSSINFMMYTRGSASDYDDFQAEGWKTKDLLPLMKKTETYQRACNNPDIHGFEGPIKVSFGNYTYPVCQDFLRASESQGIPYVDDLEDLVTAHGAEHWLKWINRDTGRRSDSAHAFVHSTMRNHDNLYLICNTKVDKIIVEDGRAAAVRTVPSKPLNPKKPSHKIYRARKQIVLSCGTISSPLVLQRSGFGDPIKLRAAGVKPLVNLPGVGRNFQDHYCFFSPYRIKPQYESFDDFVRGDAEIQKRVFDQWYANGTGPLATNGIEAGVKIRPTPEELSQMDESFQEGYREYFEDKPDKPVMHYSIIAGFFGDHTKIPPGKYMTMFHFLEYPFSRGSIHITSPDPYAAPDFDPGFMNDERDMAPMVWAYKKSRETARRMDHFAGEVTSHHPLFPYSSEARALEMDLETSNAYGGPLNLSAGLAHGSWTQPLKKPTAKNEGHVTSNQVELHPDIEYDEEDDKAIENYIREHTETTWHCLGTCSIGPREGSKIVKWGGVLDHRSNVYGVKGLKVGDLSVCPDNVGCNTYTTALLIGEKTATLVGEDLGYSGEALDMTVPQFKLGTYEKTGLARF
# Description: The alcohol oxidase activity for reaction with methanol was determined by the following assay procedure (dye-peroxidase method). A dye-buffer mixture was prepared by mixing 0.1 mL of an o-dianisidine solution (1 weight % o-dianisdine in water) with 12 mL of aerated 0.1 M sodium phosphate buffer (pH 7.5). The assay mixture was prepared with 2.5 mL of the dye-buffer mixture, 50 μL of methanol, 10 μL of a peroxidase solution (1 mg of horse-radish peroxidase-Sigma, Type II), and 25 μL of the alcohol oxidase solution. The assay mixture was maintained at 25° C. in a 4×1×1 cm cuvette and the increase in absorbance by the dye at 460 nm was recorded for 2 to 4 minutes. The enzyme activity was calculated by [formula] wherein 11.5 is a factor based on a standard curve prepared with known aliquots of H2 O2 and ΔA is the change in absorbance during the experimental interval.
# Pichia alcohol oxidase [2] = biological target: T1, Pichia alcohol oxidase
# Description: The samples are allowed to stand at room temperature for 15 minutes. Color and enzyme activity are monitored at that time.
# [3] = biological target: T2, purified Pichia alcohol oxidase (Komagataella phaffii, UniProt F2QY27); assay: biochemical; type: biochemical, Pichia pastoris
# T2 construct: saturated solution of purified Pichia alcohol oxidase; endogenous in cells
# T2 sequence (F2QY27 2-663 limits assumed): T1 sequence (F2QY27 2-663 limits assumed)
# Description: A series of solutions were prepared by combining 3.9 mL standard phosphate buffer (pH 7.5) having NaN3 (g/l) as set forth in Table 8, 15 μL saturated solution of purified Pichia alcohol oxidase, and 50 μL methanol solution (% V/V in H2 O). Reaction velocity V (rate of methanol oxidation in the presence of alcohol oxidase) was monitored by a dissolved oxygen probe by following oxygen consumption (oxygen is consumed as alcohol substrate, S, is oxidized in the presence of the enzyme).
# alcohol oxidase = alcohol oxidase (Komagataella phaffii, UniProt F2QY27)
# Description: 3 mL of purified enzyme containing 3 mg/mL enzyme (crystallized as described in Example I) were placed in a 1-cm quartz cuvette. The solution was scanned from 350-550 nm.
# where [formula] ΔA522 =change in absorbance at 522 nm upon NaN3 addition, and
# ΔA522^max =total change in absorbance at 522 nm upon saturation of enzyme solution with NaN3.
# [4] = biological target: Hansenula polymorpha alcohol oxidase (Pichia angusta, UniProt P04841); conditions: 1 mL crude Hansenula polymorpha enzyme preparation, a few crystals (one mg)
# Description: Fermentation effluent from the aerobic fermentation of Hansenula polymorpha (prepared as described in Example II) was adjusted to pH 7.5 with concentrated ammonium hydroxide. Sample was homogenized and disrupted on a Dyno-Mill Model KDL using a 0.6 L vessel in a continuous operation at 30° C. using belt combination #3 and a flow of 20-30 mL/hr. The beads were lead-free glass beads with a diameter of 0.3-0.5 mm. The resulting homogenate was centrifuged for 20 minutes at 10,000×g to yield a cell-free supernatant.
# One mL of this crude enzyme preparation was mixed with a few crystals (qualitative--one mg) of NaN3 is a test tube.
# Hansenula polymorpha alcohol oxidase, sequence (P04841 2-664 limits assumed): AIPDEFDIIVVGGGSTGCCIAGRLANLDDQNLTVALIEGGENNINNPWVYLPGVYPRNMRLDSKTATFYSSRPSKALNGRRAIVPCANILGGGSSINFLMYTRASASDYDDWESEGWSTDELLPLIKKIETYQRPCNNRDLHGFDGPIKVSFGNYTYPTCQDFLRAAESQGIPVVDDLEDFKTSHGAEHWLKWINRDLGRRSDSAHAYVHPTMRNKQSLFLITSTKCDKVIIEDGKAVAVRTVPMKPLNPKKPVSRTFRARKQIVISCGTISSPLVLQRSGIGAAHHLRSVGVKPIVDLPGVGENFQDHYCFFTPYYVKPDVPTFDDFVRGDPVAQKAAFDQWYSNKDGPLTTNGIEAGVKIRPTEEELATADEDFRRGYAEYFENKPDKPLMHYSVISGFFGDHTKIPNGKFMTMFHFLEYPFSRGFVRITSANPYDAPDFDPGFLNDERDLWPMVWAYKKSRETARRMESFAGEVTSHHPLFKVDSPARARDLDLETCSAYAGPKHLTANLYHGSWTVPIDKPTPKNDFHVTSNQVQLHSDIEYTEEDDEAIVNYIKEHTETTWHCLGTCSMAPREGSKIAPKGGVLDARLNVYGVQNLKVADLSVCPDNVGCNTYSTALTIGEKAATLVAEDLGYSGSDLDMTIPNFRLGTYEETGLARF
smiles,measurement,setting,value
[Cl-].[K+] [KCl],Relative Enz. Act.,Pichia alcohol oxidase [1],2
O=P([O-])(O)O.[K+] [KH2 PO4],Relative Enz. Act.,Pichia alcohol oxidase [1],0
N#CS [KSCN],EU/mL* at 15 min.,Pichia alcohol oxidase [2],25 EU/mL
[Cl-].[Li+] [LiCl],Relative Enz. Act.,Pichia alcohol oxidase [1],0
[Cl-].[Cl-].[Mg+2] [MgCl2],Relative Enz. Act.,Pichia alcohol oxidase [1],0
O=P([O-])([O-])O.[Na+].[Na+] [Na2 HPO4],Relative Enz. Act.,Pichia alcohol oxidase [1],4
CC(=O)O [NaAc],Relative Enz. Act.,Pichia alcohol oxidase [1],4
[Cl-].[Na+] [NaCl],Relative Enz. Act.,Pichia alcohol oxidase [1],1
O=P([O-])(O)O.[Na+] [NaH2 PO4],Relative Enz. Act.,Pichia alcohol oxidase [1],0
"[N-]=[N+]=[N-].[Na+] [NaN3, sodium azide]",Color at 15 min.,"Pichia alcohol oxidase [2]; a few crystals (about 1 mg) added to 1 mL purified enzyme solution, room temperature",Red immediately
same,EU/mL* at 15 min.,"Pichia alcohol oxidase [2]; a few crystals (about 1 mg) added to 1 mL purified enzyme solution, room temperature, 15 min",75 EU/mL
same,1/V,"[3]; NaN3 .0001 g/l, MeOH .004 M",.0488
same,1/V,"[3]; NaN3 .0001 g/l, MeOH .016 M",.04
same,1/V,"[3]; NaN3 .0002 g/l, MeOH .0005 M",.2632
same,1/V,"[3]; NaN3 .0002 g/l, MeOH .001 M",.1429
same,1/V,"[3]; NaN3 .0002 g/l, MeOH .002 M",.0725
same,1/V,"[3]; NaN3 .0002 g/l, MeOH .004 M",.0588
same,1/V,"[3]; NaN3 .0002 g/l, MeOH .008 M",.0455
same,1/V,"[3]; NaN3 .0002 g/l, MeOH .016 M",.0377
same,1/V,"[3]; NaN3 .0005 g/l, MeOH .0005 M",.625
same,1/V,"[3]; NaN3 .0005 g/l, MeOH .001 M",.4
same,1/V,"[3]; NaN3 .0005 g/l, MeOH .002 M",.1667
same,1/V,"[3]; NaN3 .0005 g/l, MeOH .004 M",.1111
same,1/V,"[3]; NaN3 .0005 g/l, MeOH .008 M",.0813
same,1/V,"[3]; NaN3 .0005 g/l, MeOH .016 M",.0602
same,1/V,"[3]; NaN3 .001 g/l, MeOH .001 M",1
same,1/V,"[3]; NaN3 .001 g/l, MeOH .002 M",.333
same,1/V,"[3]; NaN3 .001 g/l, MeOH .004 M",.1667
same,1/V,"[3]; NaN3 .001 g/l, MeOH .008 M",.111
same,1/V,"[3]; NaN3 .001 g/l, MeOH .016 M",.0645
same,Ki,"[3]; estimated from 1/V vs 1/[S] plots, pH 7.5, read-out: binding constant for NaN3 inhibitor, Ki",6 µM
same,type of inhibition,[3]; from 1/V vs 1/[S] plots,"linear, mixed-type inhibition"
same,"fractional saturation, .PHI.",alcohol oxidase; Excess (solid crystals) NaN3,1.000
same,"fractional saturation, .PHI.",alcohol oxidase; Moles N3^-/Moles Enzyme 1.15,.167
same,"fractional saturation, .PHI.",alcohol oxidase; Moles N3^-/Moles Enzyme 1.54,.207
same,"fractional saturation, .PHI.",alcohol oxidase; Moles N3^-/Moles Enzyme 1.92,.259
same,"fractional saturation, .PHI.",alcohol oxidase; Moles N3^-/Moles Enzyme 2.31,.309
same,"fractional saturation, .PHI.",alcohol oxidase; Moles N3^-/Moles Enzyme 3.02,.407
same,"fractional saturation, .PHI.",alcohol oxidase; Moles N3^-/Moles Enzyme 3.85,.475
same,"fractional saturation, .PHI.",alcohol oxidase; Moles N3^-/Moles Enzyme 4.61,.525
same,"fractional saturation, .PHI.",alcohol oxidase; Moles N3^-/Moles Enzyme 5.38,.580
same,"fractional saturation, .PHI.",alcohol oxidase; Moles N3^-/Moles Enzyme 6.25,.630
same,"fractional saturation, .PHI.",alcohol oxidase; Moles N3^-/Moles Enzyme 6.92,.679
same,"fractional saturation, .PHI.",alcohol oxidase; Moles N3^-/Moles Enzyme .38,.062
same,"fractional saturation, .PHI.",alcohol oxidase; Moles N3^-/Moles Enzyme .77,.105
same,number of azide binding sites (extrapolation of the stoichiometric line to the baseline),alcohol oxidase; plot of .PHI. vs ligand/enzyme mole ratio,7.6 moles of azide per mole of enzyme
same,Color on mixing with crude enzyme preparation,[4],Red color forms upon mixing
CO [methanol],Kd,"[3]; estimated from 1/V vs 1/[S] plots, pH 7.5, read-out: binding constant for methanol substrate, KS",600 µM
